Assay results as given in article PMC8651714 (Scientific Reports, 2021).
Like-named read-outs stand apart in the source and are kept apart here.

Columns and labels:
human MAO-A (hMAO-A) = conditions: cited from earlier work
human MAO-B (hMAO-B) = conditions: cited from earlier work
hMAO-A = molecular target: T1, hMAO-A (Homo sapiens, UniProt P21397); test: Recombinant hMAO-A inhibitory assay (luminescent) and enzyme kinetics; type: biochemical
T1 construct: purchased Sigma Aldrich
T1 sequence (P21397 1-527): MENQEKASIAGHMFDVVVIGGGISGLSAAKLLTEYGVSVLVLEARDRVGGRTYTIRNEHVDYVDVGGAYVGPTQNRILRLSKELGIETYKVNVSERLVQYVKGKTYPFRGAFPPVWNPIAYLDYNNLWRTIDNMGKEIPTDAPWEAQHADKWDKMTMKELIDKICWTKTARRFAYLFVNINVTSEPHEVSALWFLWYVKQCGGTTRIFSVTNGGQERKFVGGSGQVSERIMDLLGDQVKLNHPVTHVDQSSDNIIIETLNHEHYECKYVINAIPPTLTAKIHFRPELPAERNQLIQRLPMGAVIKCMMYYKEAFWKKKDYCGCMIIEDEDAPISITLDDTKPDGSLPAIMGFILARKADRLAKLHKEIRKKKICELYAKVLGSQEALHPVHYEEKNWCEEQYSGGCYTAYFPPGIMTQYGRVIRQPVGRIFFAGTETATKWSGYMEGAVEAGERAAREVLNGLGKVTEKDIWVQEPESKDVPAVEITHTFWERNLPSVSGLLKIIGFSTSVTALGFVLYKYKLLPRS

[1] = molecular target: T2, human dopamine D2L receptor (Homo sapiens, UniProt P14416); test: Radioligand binding assay, [3H]methylspiperone, HEK-D2LR membranes; conditions: duplicate
T2 construct: host or cells: HEK-293

[2] = molecular target: T3, human dopamine D4 receptor (Homo sapiens, UniProt P21917); test: Radioligand binding assay, [3H]methylspiperone, CHO-D4R membranes; conditions: duplicate, read-out: % Inhibition of control-specific binding
T3 construct: host or cells: CHO
T3 sequence (P21917 1-419): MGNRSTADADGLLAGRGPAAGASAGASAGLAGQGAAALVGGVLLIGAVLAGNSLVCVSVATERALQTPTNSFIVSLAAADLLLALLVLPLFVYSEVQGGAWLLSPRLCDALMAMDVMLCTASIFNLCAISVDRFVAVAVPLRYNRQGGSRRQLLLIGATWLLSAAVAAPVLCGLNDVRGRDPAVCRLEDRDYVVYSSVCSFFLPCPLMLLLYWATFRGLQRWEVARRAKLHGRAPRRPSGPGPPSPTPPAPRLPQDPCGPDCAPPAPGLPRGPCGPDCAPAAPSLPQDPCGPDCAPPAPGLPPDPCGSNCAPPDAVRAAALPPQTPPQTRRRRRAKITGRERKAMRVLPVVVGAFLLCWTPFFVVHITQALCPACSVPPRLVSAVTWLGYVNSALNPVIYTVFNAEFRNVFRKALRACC

[3] = molecular target: T4, human vasopressin V1A receptor (Homo sapiens, UniProt P37288); conditions: agonist binding, [3H]AVP, 100 µM, duplicate
[4] = molecular target: T5, human dopamine D3 receptor (Homo sapiens, UniProt P35462); conditions: 100 µM
MAO from bovine serum = test system: MAO from bovine serum; design: method as in PMID 1913999; conditions: read-out: Concentration for 50% inhibition of MAO activity; cited from earlier work
rat brain MAO-A = conditions: cited from earlier work
rat brain MAO-B = conditions: cited from earlier work
[5] = molecular target: human dopamine D1 receptor (Homo sapiens, UniProt P21728); test: cell-based
[6] = molecular target: T5, human dopamine D3 receptor; test: cell-based
[7] = molecular target: T4, human vasopressin V1A receptor; test: cell-based
hMAO-B = molecular target: T6, hMAO-B (Homo sapiens, UniProt P27338); test: biochemical; conditions: for Ki: inhibition constant from secondary plots
T6 sequence (P27338 1-520): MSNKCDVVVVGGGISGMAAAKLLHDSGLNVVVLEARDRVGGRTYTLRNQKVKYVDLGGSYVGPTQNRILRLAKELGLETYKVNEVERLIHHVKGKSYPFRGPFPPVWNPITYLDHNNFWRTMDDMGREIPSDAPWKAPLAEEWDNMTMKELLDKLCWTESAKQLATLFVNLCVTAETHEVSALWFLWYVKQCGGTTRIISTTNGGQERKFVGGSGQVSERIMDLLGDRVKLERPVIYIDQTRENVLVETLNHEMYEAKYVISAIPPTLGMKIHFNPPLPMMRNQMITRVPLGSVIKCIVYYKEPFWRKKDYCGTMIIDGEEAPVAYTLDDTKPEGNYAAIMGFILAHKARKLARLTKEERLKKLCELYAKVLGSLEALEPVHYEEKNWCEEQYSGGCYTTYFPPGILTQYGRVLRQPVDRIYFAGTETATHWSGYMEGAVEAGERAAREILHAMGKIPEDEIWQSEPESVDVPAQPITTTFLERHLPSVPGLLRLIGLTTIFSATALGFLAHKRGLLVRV

[8] = ILG isolated from Colvillea racemosa

In the case of COc1cc(O)ccc1C(=O)/C=C/c1ccc(O)cc1 [3-Deoxysappanchalcone, 2′-methoxy-4′,4″-dihydroxychalcone, reference compound], the IC50 (human MAO-A (hMAO-A)) is given as 10.1 µM and the IC50 (human MAO-B (hMAO-B)) is given as 0.68 µM.
For O=C(/C=C/c1ccc(O)cc1)c1ccc(O)cc1O [Isoliquiritigenin, 4,2′,4′-Trihydroxychalcone], the Ki (hMAO-A; inhibition constant from secondary plots) was 0.16 µM, the IC50 (hMAO-A; recombinant hMAO-A, mean ± standard deviation of triplicate assays) was 0.68 ± 0.03 µM and the “% Inhibition of control-specific binding” value ([1]; 100 µM) was “no binding affinity”. The inhibition at 100 µM ([1]; read-out: % Inhibition of control-specific binding) was 21.3%, the inhibition at 100 µM [2] was 44.8% and the “% Inhibition of control-specific binding” value [3] was 60.8%. The “% Stimulation (percentage of control agonist response)” value [4] was 92.7 ± 0.5%, the IC50 (MAO from bovine serum) was > 200 µM and the IC50 (rat brain MAO-A; ILG isolated from Sinofranchetia chinensis, rat brain, read-out: rMAO-A IC50) was 13.9 µM. For the same compound, the rMAO-A inhibition type (rat brain MAO-A; previous study) was “non-competitive inhibition”, the IC50 (rat brain MAO-B; ILG isolated from Sinofranchetia chinensis, rat brain, read-out: rMAO-B IC50) was 47.2 µM and the rMAO-B inhibition type (rat brain MAO-B; previous study) was “mixed inhibition”. The IC50 (human MAO-A (hMAO-A); [8]) was 22.7 ± 1.84 µM, the IC50 (human MAO-A (hMAO-A); earlier report) was 41.5 µM and the IC50 (human MAO-B (hMAO-B); [8]) was 0.51 ± 0.01 µM. For the same compound, the IC50 (human MAO-B (hMAO-B); earlier report) was 21.8 µM, the IC50 [5] was 68.9 ± 0.2 µM and the EC50 [6] was 62.3 ± 0.2 µM. For the same compound, the EC50 [7] was 78.6 ± 2.7 µM, the IC50 (hMAO-B) was 0.33 ± 0.02 µM and the Ki (hMAO-B; hMAO-B Kic) was 0.094 µM. For the same compound, the Ki (hMAO-B; hMAO-B Kiu) was 0.71 ± 0.01 µM.
For O=C1C[C@@H](c2ccc(O)cc2)Oc2cc(O)ccc21 [LG, reference compound], the IC50 (human MAO-A (hMAO-A)) is listed as 0.27 ± 0.04 µM and the IC50 (human MAO-B (hMAO-B)) is listed as 0.098 µM.
